Laboratory results: paper PMC10763615, “Identification and engineering of potent cyclic peptides with selective or promiscuous binding through biochemical profiling and bioinformatic data analysis” (RSC Chemical Biology, 2023)
Read-outs that look alike come from different tables or passages of the source. Positions of bridges follow the written chain, without caps; N, C: chain ends. Residues, ends and D or L forms follow the SMILES beside them.

Tests used:
Type in all cases: binding
[1] = biological target: T1, FGF-R4 ECD (Homo sapiens, UniProt P22455); assay: single concentration BLI of crude peptides; conditions: read-out: KD (4)
T1 construct: DNA constructs for the extracellular domain (ECD) of human FGF-; HPC4 (C); made in house; host or cells: HEK 293-6E
T1 sequence (P22455 22-369 limits assumed): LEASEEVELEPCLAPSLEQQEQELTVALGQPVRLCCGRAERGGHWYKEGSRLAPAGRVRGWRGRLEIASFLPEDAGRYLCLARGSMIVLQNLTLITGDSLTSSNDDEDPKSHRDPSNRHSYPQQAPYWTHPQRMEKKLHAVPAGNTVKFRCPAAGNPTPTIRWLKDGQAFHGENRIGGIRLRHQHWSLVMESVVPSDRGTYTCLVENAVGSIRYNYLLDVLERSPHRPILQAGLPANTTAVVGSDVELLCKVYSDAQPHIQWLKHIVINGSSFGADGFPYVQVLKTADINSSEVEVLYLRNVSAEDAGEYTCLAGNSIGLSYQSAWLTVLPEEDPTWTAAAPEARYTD
Method: (§1) KD affinity binding measurements were obtained by biolayer interferometry (BLI) instruments (Fortebio Octet HTX, or Sartorius Octet RH16 using either 8 or 16 channel mode.
For single concentration binding experiments, 50 μM peptide stocks in folding buffer were diluted 1:50 in mRNA display selection buffer (PBS pH7.4 supplemented with 0.05% Tween-20 and 0.01% BSA) in either a 96 well black plate, or a 384 well tilted bottom microplate (ForteBio). Biotinylated FGF-R protein was loaded onto Streptavidin-functionalised biosensors (ForteBio) and immersed into ~1 μM peptide to obtain association kinetics curves. Dissociation kinetics curves were obtained by subsequent immersion of ligand-associated loaded sensors into a 1:50 dilution of folding buffer in mRNA display selection buffer. Fitted KD data was adjusted for concentration as determined by UPLC-CAD. […]

[2] = biological target: T2, FGF-R1C ECD (Homo sapiens, UniProt P11362); assay: biochemical; set-up: DNA constructs for the extracellular domain (ECD) of human FGF-; HPC4 (C); made in house; host or cells: HEK 293-6E
T2 sequence (P11362 22-376 limits assumed): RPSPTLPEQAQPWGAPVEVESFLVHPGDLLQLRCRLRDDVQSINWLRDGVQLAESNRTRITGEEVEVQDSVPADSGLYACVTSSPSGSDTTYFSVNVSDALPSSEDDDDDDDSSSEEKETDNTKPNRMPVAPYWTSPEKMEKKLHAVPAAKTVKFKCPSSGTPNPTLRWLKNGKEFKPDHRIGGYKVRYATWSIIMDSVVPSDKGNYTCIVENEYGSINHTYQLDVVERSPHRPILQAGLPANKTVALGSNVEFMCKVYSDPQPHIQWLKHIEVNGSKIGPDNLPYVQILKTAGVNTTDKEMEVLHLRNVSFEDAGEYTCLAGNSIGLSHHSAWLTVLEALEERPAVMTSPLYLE
Method: as §1
(§2) For single concentration binding experiments, 50 μM peptide stocks in folding buffer were diluted 1:50 in mRNA display selection buffer (PBS pH7.4 supplemented with 0.05% Tween-20 and 0.01% BSA) in either a 96 well black plate, or a 384 well tilted bottom microplate (ForteBio). Biotinylated FGF-R protein was loaded onto Streptavidin-functionalised biosensors (ForteBio) and immersed into ~1 μM peptide to obtain association kinetics curves. Dissociation kinetics curves were obtained by subsequent immersion of ligand-associated loaded sensors into a 1:50 dilution of folding buffer in mRNA display selection buffer. Fitted KD data was adjusted for concentration as determined by UPLC-CAD.
(§3) For accurate multi-concentration KD determination, dilution series of each peptide were made, and association and dissociation kinetics curves were obtained as above for each concentration to fit a multi-point KD binding model. Data collection and analysis was performed using the Octet Instrument Control […]
(§4) concentration assay kinetics curves shown in supplementary Figure S 19-24.

[3] = biological target: T3, FGF-R3C ECD (Homo sapiens, UniProt P22607); assay: biochemical; set-up: DNA constructs for the extracellular domain (ECD) of human FGF-; HPC4 (C); made in house; host or cells: HEK 293-6E
T3 sequence (P22607 23-375 limits assumed): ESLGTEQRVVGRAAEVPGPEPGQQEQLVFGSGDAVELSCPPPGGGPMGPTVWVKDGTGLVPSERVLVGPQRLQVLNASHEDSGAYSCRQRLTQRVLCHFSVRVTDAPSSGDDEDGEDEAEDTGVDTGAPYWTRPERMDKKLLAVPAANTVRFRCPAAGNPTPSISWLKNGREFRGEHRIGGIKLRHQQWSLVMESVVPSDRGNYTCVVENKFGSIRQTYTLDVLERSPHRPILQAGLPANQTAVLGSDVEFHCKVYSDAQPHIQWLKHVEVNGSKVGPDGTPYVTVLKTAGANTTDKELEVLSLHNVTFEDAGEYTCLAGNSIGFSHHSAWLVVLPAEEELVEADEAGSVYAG
Method: as §1, §2, §3, §4

[4] = crude T18 selection 1 (1:1:1) peptides, single concentration BLI (Table S4)

Row | Structure (SMILES) | Kd ([1]; crude NNK peptides, single concentration BLI (Table S3)) [nM] | Kd [2] [µM] | Kd [3] [nM] | Kd [1, 4] [nM]
1 | CSCC[C@H](N)C(=O)N[C@H]1CSSC[C@@H](C(=O)NCC(=O)N[C@@H](CO)C(=O)NCC(=O)N[C@@H](CO)C(=O)N[C@@H](CC(=O)O)C(=O)N[C@@H](Cc2ccc(O)cc2)C(=O)N[C@@H](CCCCN)C(=O)N[C@@H](CC(=O)O)C(=O)N[C@@H](CC(=O)O)C(=O)N[C@@H](CC(=O)O)C(=O)N[C@@H](CC(=O)O)C(=O)N[C@@H](CCCCN)C(N)=O)NC(=O)[C@H](CC(C)C)NC(=O)[C@H](C(C)C)NC(=O)[C@H](Cc2ccccc2)NC(=O)[C@@H]2CCCN2C(=O)[C@H](CC(C)C)NC(=O)[C@H](Cc2ccccc2)NC(=O)[C@H](CO)NC(=O)[C@H](CC(=O)O)NC(=O)[C@H](Cc2ccccc2)NC(=O)[C@H](C(C)C)NC1=O (H-MCVFDSFLPFVLCGSGSDYKDDDDK-NH2; disulfide 2-13) | > 10000 | > 10 | 60 | –
2 | CC[C@H](C)[C@@H]1NC(=O)[C@H](CCC(=O)O)NC(=O)[C@H](CCCNC(=N)N)NC(=O)[C@@H](NC(=O)[C@H](CCSC)NC(C)=O)CSSC[C@@H](C(=O)NCC(=O)N[C@@H](CO)C(=O)NCC(=O)N[C@@H](CO)C(=O)N[C@@H](CC(=O)O)C(=O)N[C@@H](Cc2ccc(O)cc2)C(=O)N[C@@H](CCCCN)C(=O)N[C@@H](CC(=O)O)C(=O)N[C@@H](CC(=O)O)C(=O)N[C@@H](CC(=O)O)C(=O)N[C@@H](CC(=O)O)C(=O)N[C@@H](CCCCN)C(N)=O)NC(=O)[C@H](Cc2ccccc2)NC(=O)[C@H](C)NC(=O)[C@H](CCCNC(=N)N)NC(=O)[C@H](Cc2ccc(O)cc2)NC(=O)[C@H](CC(C)C)NC(=O)[C@H](CCC(N)=O)NC(=O)[C@H](Cc2c[nH]c3ccccc23)NC(=O)[C@H](Cc2ccc(O)cc2)NC(=O)[C@H](CCCNC(=N)N)NC1=O (Ac-MCREIRYWQLYRAFCGSGSDYKDDDDK-NH2; disulfide 2-15) | – | > 10 | > 10000 | –
3 | CC[C@H](C)[C@@H]1NC(=O)CNC(=O)[C@H]([C@@H](C)O)NC(=O)[C@H](CO)NC(=O)[C@H]([C@@H](C)CC)NC(=O)[C@H](CC(N)=O)NC(=O)[C@H](CCCCN)NC(=O)[C@H](Cc2ccc(O)cc2)NC(=O)[C@@H](NC(=O)[C@H](CCSC)NC(C)=O)CSSC[C@@H](C(=O)NCC(=O)N[C@@H](CO)C(=O)NCC(=O)N[C@@H](CO)C(=O)N[C@@H](CC(=O)O)C(=O)N[C@@H](Cc2ccc(O)cc2)C(=O)N[C@@H](CCCCN)C(=O)N[C@@H](CC(=O)O)C(=O)N[C@@H](CC(=O)O)C(=O)N[C@@H](CC(=O)O)C(=O)N[C@@H](CC(=O)O)C(=O)N[C@@H](CCCCN)C(N)=O)NC(=O)[C@H](Cc2ccc(O)cc2)NC(=O)[C@H](CC(C)C)NC(=O)[C@H](Cc2ccccc2)NC1=O (Ac-MCYKNISTGIFLYCGSGSDYKDDDDK-NH2; disulfide 2-14) | – | > 10 | > 10000 | –
4 | CC[C@H](C)[C@@H]1NC(=O)[C@H](Cc2c[nH]cn2)NC(=O)[C@H](CCCNC(=N)N)NC(=O)[C@H](CCCCN)NC(=O)[C@@H](NC(=O)[C@H](CCSC)NC(C)=O)CSSC[C@@H](C(=O)NCC(=O)N[C@@H](CO)C(=O)NCC(=O)N[C@@H](CO)C(=O)N[C@@H](CCC(=O)O)C(=O)N[C@@H](CCC(=O)O)C(=O)NCC(=O)N[C@@H](CO)C(=O)NCC(=O)N[C@@H](CO)C(=O)N[C@@H](CC(=O)O)C(=O)N[C@@H](Cc2ccc(O)cc2)C(=O)N[C@@H](CCCCN)C(=O)N[C@@H](CC(=O)O)C(=O)N[C@@H](CC(=O)O)C(=O)N[C@@H](CC(=O)O)C(=O)N[C@@H](CC(=O)O)C(=O)N[C@@H](CCCCN)C(N)=O)NC(=O)[C@H](C(C)C)NC(=O)[C@H](Cc2ccc(O)cc2)NC(=O)[C@H](CC(C)C)NC(=O)[C@H](CCC(N)=O)NC(=O)[C@H](Cc2c[nH]c3ccccc23)NC(=O)[C@H](Cc2ccc(O)cc2)NC(=O)[C@H](CCCNC(=N)N)NC1=O (Ac-MCKRHIRYWQLYVCGSGSEEGSGSDYKDDDDK-NH2; disulfide 2-14) | – | 0.265 | 838 | –
5 | CC[C@H](C)[C@@H]1NC(=O)[C@H](CCC(=O)O)NC(=O)[C@H](Cc2ccc(O)cc2)NC(=O)[C@@H](NC(=O)[C@H](CCSC)NC(C)=O)CSSC[C@@H](C(=O)NCC(=O)N[C@@H](CO)C(=O)NCC(=O)N[C@@H](CO)C(=O)N[C@@H](CC(=O)O)C(=O)N[C@@H](Cc2ccc(O)cc2)C(=O)N[C@@H](CCCCN)C(=O)N[C@@H](CC(=O)O)C(=O)N[C@@H](CC(=O)O)C(=O)N[C@@H](CC(=O)O)C(=O)N[C@@H](CC(=O)O)C(=O)N[C@@H](CCCCN)C(N)=O)NC(=O)[C@H](C(C)C)NC(=O)[C@H](CCCNC(=N)N)NC(=O)[C@H](CCC(N)=O)NC(=O)[C@H](CC(C)C)NC(=O)[C@H](CCCCN)NC(=O)[C@H](Cc2ccc(O)cc2)NC(=O)[C@H](Cc2c[nH]c3ccccc23)NC(=O)[C@H]([C@@H](C)CC)NC1=O (Ac-MCYEIIWYKLQRVCGSGSDYKDDDDK-NH2; disulfide 2-14) | – | > 10 | > 10000 | –
6 | CC[C@H](C)[C@@H]1NC(=O)[C@H](Cc2c[nH]cn2)NC(=O)[C@@H](NC(=O)[C@H](CCSC)NC(C)=O)CSSC[C@@H](C(=O)NCC(=O)N[C@@H](CO)C(=O)NCC(=O)N[C@@H](CO)C(=O)N[C@@H](CC(=O)O)C(=O)N[C@@H](Cc2ccc(O)cc2)C(=O)N[C@@H](CCCCN)C(=O)N[C@@H](CC(=O)O)C(=O)N[C@@H](CC(=O)O)C(=O)N[C@@H](CC(=O)O)C(=O)N[C@@H](CC(=O)O)C(=O)N[C@@H](CCCCN)C(N)=O)NC(=O)[C@H](C(C)C)NC(=O)[C@H](Cc2ccc(O)cc2)NC(=O)[C@H](Cc2c[nH]cn2)NC(=O)[C@H](Cc2ccccc2)NC(=O)[C@H](CCC(N)=O)NC(=O)[C@H](CC(N)=O)NC(=O)[C@H](CC(N)=O)NC(=O)[C@H](Cc2ccccc2)NC(=O)[C@H](Cc2ccc(O)cc2)NC(=O)[C@H](Cc2c[nH]c3ccccc23)NC1=O (Ac-MCHIWYFNNQFHYVCGSGSDYKDDDDK-NH2; disulfide 2-15) | – | > 10 | – | 6
7 | CSCC[C@H](NC(C)=O)C(=O)N[C@H]1CSSC[C@@H](C(=O)NCC(=O)N[C@@H](CO)C(=O)NCC(=O)N[C@@H](CO)C(=O)N[C@@H](CCC(=O)O)C(=O)N[C@@H](CCC(=O)O)C(=O)NCC(=O)N[C@@H](CO)C(=O)NCC(=O)N[C@@H](CO)C(=O)N[C@@H](CC(=O)O)C(=O)N[C@@H](Cc2ccc(O)cc2)C(=O)N[C@@H](CCCCN)C(=O)N[C@@H](CC(=O)O)C(=O)N[C@@H](CC(=O)O)C(=O)N[C@@H](CC(=O)O)C(=O)N[C@@H](CC(=O)O)C(=O)N[C@@H](CCCCN)C(N)=O)NC(=O)[C@H](CCCNC(=N)N)NC(=O)[C@H](CO)NC(=O)[C@H](Cc2c[nH]cn2)NC(=O)[C@H](CCCCN)NC(=O)[C@H](CC(C)C)NC(=O)[C@H](Cc2c[nH]c3ccccc23)NC(=O)[C@H](CC(C)C)NC(=O)[C@H](CCCCN)NC(=O)[C@H](Cc2ccc(O)cc2)NC(=O)[C@H](Cc2ccc(O)cc2)NC(=O)[C@H](C(C)C)NC(=O)[C@H](C)NC1=O (Ac-MCAVYYKLWLKHSRCGSGSEEGSGSDYKDDDDK-NH2; disulfide 2-15) | – | > 10 | – | 7
